From patent publication US20260092085A1, “SYNTHETIC TRIPLEX PEPTIDE NUCLEIC ACID-BASED INHIBITORS FOR CANCER THERAPY” (University of Connecticut, priority 2022, published 2026)
{RR} = two arginine residues at the PNA terminus

How the values were obtained:
miR-155 [1] = assay: miR-155 gene expression by RT-PCR in U2932 cells; type: cell-based, human; conditions: U2932, 500 nM, 48 hours, relative to scrambled control
Experimental: FIGS. 3A-F show cell culture-based functional assay in U2932 lymphoma cells. (3A) γtcPNA-155-TAMRA uptake in the U2932 lymphoma cell line: Representative flow cytometry traces of TAMRA fluorescence in U2932 cells after treatment with 500 nM dose of γtcPNA-155-TAMRA for 48 hours. The data was analyzed by FlowJo software. (3B) Normalized miR-155 gene expression levels in U2932 after treatment with phosphate buffer saline (PBS) as a control and with 500 nM dose of Scr-γtcPNA-155, PNA-155, γPNA-155 and γtcPNA-155 for 48 hours compared to average control U6 (n=3), data represented as mean±standard error mean (SEM), Statistical analysis was performed using Unpaired two-tailed t-test. Further, statistical analysis was performed relative to Scr-γtcPNA-155 treated cells. ***p<0.001. (3C) Gene expression level of miR-155 downstream genes, tumor suppressor proteins (FOXO3A, CUX1, SOCS1, CSF1R, JARID2, SHIP1, PICALM, PDCD4, BACH1, WEE1, TP53TG3, CASP3, PTEN) in U2932 cell line after treatment with PBS as a control and with after treatment with 500 nM of Scr-γtcPNA-155, PNA-155, γPNA-155 and γtcPNA-155 for 48 hours. Data is normalized with average GAPDH control (n=3), and represented as mean±SEM, *p<0.05. Unpaired two-tailed t-test was used for statistical analysis and analysis was performed relative to Scr-γtcPNA-155 treated cells. (3D) Gene expression level of miR-155 downstream genes MCL1 in U2932 cell line after treatment with PBS as a control and 500 nM of Scr-γtcPNA-155, PNA-155, γPNA-155 and γtcPNA-155 for 48 hours. Data is normalized with average GAPDH control (n=3), and represented as mean±SEM, *p<0.05, **p<0.01 and ***p<0.001. […] (3E) Representative western blot of Mcl-1 and its quantification (n=3 technical replicate) and (3F) Caspase-3 protein and its quantification (n=3 technical replicate) in U2932 cell line after treatment with 500 nM of Scr-γtcPNA-155, PNA-155 and γtcPNA-155 for 48 hours. […] Numbers above western blot panels represent relative quantification of the respective bands using ImageJ software and normalized relative to loading control and treatment control. […]

miR-155 [2] = assay: miR-155 gene expression in U2932 tumor samples after in vivo treatment; set-up: species or system NSG mice; conditions: U2932 xenograft, intra-tumoral
Experimental: FIGS. 22A-D show in vivo gene expression and protein level analysis. (22A) miR-155 gene expression levels in U2932 tumor samples after in vivo treatment with indicated PNAs. Data was normalized with average control U6 (n=4, data represented as mean±standard error mean). ***p<0.001 (22B) Gene expression level of downstream target genes of miR-155: MCL1 in U2932 tumor samples after treatment with total 3 mg kg-1 dose of Scr-γtcPNA-155, PNA-155, γPNA-155 and γtcPNA-155 and normalized with average control GAPDH (n=3, data represented as mean±SEM), unpaired two-tailed t-test was performed for analysis). *p<0.05, **p<0.01 (22C) Representative western blot of Mcl-1 protein and its quantification (n=3 technical replicate) in U2932 tumor samples treated with total 3 mg kg-1 dose of Scr-γtcPNA-155, PNA-155 and γtcPNA-155. Data is represented as mean±SEM and unpaired two-tailed t-test was performed for analysis. *p<0.05. The relative protein levels were determined from the band intensity using ImageJ software and normalized relative to loading control and treatment control. (22D) Gene expression level of tumor suppressor proteins (FOXO3A, CUX1, SOCS1, CSF1R, JARID2, SHIP1, PICALM, PDCD4, BACH1, CASP3) in U2932 tumor samples after treatment with total 3 mg kg-1 dose of Scr-γtcPNA-155, PNA-155, γPNA-155 and γtcPNA-155 and normalized with average control GAPDH (n=3, data represented as mean±SEM, unpaired two-tailed t-test was performed for statistical analysis). *p<0.05, **p<0.01.
RNA and Protein extraction from tumor samples: The mice were injected intra-tumorally with 1 mg kg-1 dose of PNA-155, γtcPNA-155, γPNA-155, Scr-γtcPNA-155 or were untreated. The injections were repeated two additional times after 1 week each. The length, breadth, and depth of the tumors were measured daily using a vernier caliper. The mice were euthanized when the tumor volumes reached 2000 mm^3. The resected tumor sections were finely minced using a sterile blade and suspended in dissociation media (4 ml) comprising of RPMI-1640, 1.2 mg/ml dispase, and 0.5 mg/ml collagenase for 90 mins at 500 rpm at 37° C. The dissociated tumors were washed with buffer saline at 2500 rpm (4 mins) at 4° C. and then suspended in 0.25% trypsin for 4 mins at room temperature. RPMI 1640 media was added to the trypsinized tumor mass, and the cells were passed through a 70 um filter. The cells were centrifuged at 2500 rpm for 4 mins at 4° C. The cell pellet was then suspended in 1×RBC lysis buffer (Sigma) and incubated on ice for 10 mins. PBS was added to the cells and the cells were passed through a 40 um filter. The cells were centrifuged at 2500 rpm for 4 mins at 4° C. The cell pellet was resuspended in 0.5% BSA in PBS. […]

PNA-155: conventional full-length regular PNA (23mer), RR-ACCCCTATCACGATTAGCATTAA-RR, SEQ ID NO: 1 (all peptide nucleic acid (PNA), 5' {RR}, 3' {RR}) [reference compound]
miR-155 inhibition (miR-155 [1]): approximately 80% | decrease in miR-155 gene expression in tumors (miR-155 [2]): 75%

γtcPNA-155: serine gamma tail-clamp anti-miR-155 PNA, RR-TJJJJ-OOO-ACCCCTATCACGATTAGCATTAA-RR, SEQ ID NO: 3 (all peptide nucleic acid (PNA); serine gamma PNA, tail-clamp TJJJJ via linkers, Arg-Arg at both ends)
miR-155 inhibition (miR-155 [1]): ~90% | decrease in miR-155 gene expression in tumors (miR-155 [2]): 90%
